Source: ChEMBL document CHEMBL2401678, “Synthesis and changes in affinity for NOP and opioid receptors of novel hexapeptides containing β(2)-tryptophan analogues” (Bioorg Med Chem Lett, 2013)
Active and inactive are the calls of the source. No cut-off for these calls is given here. *1 amine or outer side, *2 acyl side, *3 side chain or, on linkers, in order; H or OH if unused. Where a SMILES comes first, the peptide text is derived from it. [ ]: non-standard residue; d: D form. X2 = COc1ccc2[nH]cc([C@H](CN[*:1])C(=O)[*:2])c2c1; X1 = Cn1cc([C@H](CN[*:1])C(=O)[*:2])c2ccccc21

Experiments:
Mu-type opioid receptor [1] = molecular target: T1, Mu-type opioid receptor (Rattus norvegicus, UniProt P33535); test: Activity at Wistar rat mu opioid receptor assessed as inhibition of low-frequency electrically-stimulated vas deferens contraction in presence of naloxone
T1 sequence (P33535 whole entry): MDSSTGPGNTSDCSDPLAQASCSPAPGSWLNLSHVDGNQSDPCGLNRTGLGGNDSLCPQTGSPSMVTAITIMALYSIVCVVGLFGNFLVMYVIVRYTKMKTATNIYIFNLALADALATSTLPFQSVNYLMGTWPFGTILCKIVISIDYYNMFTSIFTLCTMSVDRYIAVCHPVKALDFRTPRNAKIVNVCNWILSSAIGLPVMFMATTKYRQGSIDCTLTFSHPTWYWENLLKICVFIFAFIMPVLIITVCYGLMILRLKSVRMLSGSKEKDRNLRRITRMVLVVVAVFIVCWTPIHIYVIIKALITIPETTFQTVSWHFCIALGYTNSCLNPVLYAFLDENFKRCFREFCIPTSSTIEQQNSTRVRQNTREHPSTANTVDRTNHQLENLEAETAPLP

[2] = molecular target: Mu-type opioid receptor (Rattus norvegicus) (UniProt P33535); test: Activity at Wistar rat mu opioid receptor assessed as inhibition of low-frequency electrically-stimulated vas deferens contraction at 1 x 10^-5 M in presence of naloxone relative to control
Mu-type opioid receptor (Rattus norvegicus), sequence (P33535 whole entry): as above

[3] = molecular target: Mu-type opioid receptor (Rattus norvegicus) (UniProt P33535); test: Activity at Wistar rat mu opioid receptor assessed as inhibition of low-frequency electrically-stimulated vas deferens contraction at 1 x 10^-11 to […] in presence of naloxone
[4] = molecular target: Mu-type opioid receptor (Rattus norvegicus) (UniProt P33535); test: Activity at Wistar rat mu opioid receptor assessed as inhibition of low-frequency electrically-stimulated vas deferens contraction at 1 x 10^-5 M relative to control
Mu-type opioid receptor [5] = molecular target: T1, Mu-type opioid receptor; test: Activity at Wistar rat mu opioid receptor assessed as inhibition of low-frequency electrically-stimulated vas deferens contraction
[6] = molecular target: Mu-type opioid receptor (Rattus norvegicus) (UniProt P33535); test: Activity at Wistar rat mu opioid receptor assessed as inhibition of low-frequency electrically-stimulated vas deferens contraction at 1 x 10^-6 to 1 x 10^-5 M in presence of naloxone benzoylhydrazone
[7] = molecular target: T2, Nociceptin/mu opioid receptor (Rattus norvegicus) (UniProt P33535+P35370); test: Activity at Wistar rat NOP/mu opioid receptor assessed as inhibition of low-frequency electrically-stimulated vas deferens contraction at 1 x 10^-5 M in presence of naloxone relative to control; assay type: protein assay
T2 sequence (P33535 whole entry, looked up): as the sequence (P33535 whole entry) above
T2 sequence (P35370 whole entry, looked up): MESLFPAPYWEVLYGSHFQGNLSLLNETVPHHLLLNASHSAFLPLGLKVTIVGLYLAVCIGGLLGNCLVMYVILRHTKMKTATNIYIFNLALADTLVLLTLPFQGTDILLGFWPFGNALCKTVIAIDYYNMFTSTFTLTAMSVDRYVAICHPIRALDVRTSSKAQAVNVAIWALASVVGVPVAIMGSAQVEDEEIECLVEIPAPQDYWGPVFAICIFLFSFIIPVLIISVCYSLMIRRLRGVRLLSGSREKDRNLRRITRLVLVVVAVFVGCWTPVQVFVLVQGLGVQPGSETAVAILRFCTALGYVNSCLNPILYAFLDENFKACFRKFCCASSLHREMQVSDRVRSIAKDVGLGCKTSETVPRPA

[8] = molecular target: Mu-type opioid receptor (Rattus norvegicus) (UniProt P33535); test: Activity at Wistar rat mu opioid receptor assessed as inhibition of low-frequency electrically-stimulated vas deferens contraction up to 1 x 10^-5 M in presence of naloxone benzoylhydrazone
[9] = molecular target: T2, Nociceptin/mu opioid receptor (Rattus norvegicus); test: Activity at Wistar rat NOP/mu opioid receptor assessed as inhibition of low-frequency electrically-stimulated vas deferens contraction at 1 x 10^-5 M relative to control; assay type: protein assay
[10] = molecular target: T3, Nociceptin/mu opioid receptor (Rattus norvegicus, UniProt P33535+P35370); test: Activity at Wistar rat NOP/mu opioid receptor assessed as inhibition of low-frequency electrically-stimulated vas deferens contraction; assay type: protein assay
[11] = molecular target: T3, Nociceptin/mu opioid receptor; test: Activity at Wistar rat NOP/mu opioid receptor assessed as inhibition of low-frequency electrically-stimulated vas deferens contraction in presence of naloxone; assay type: protein assay
[12] = molecular target: Mu-type opioid receptor (Rattus norvegicus) (UniProt P33535); test: Activity at Wistar rat mu opioid receptor assessed as inhibition of low-frequency electrically-stimulated vas deferens contraction at 1 x 10^-6 to 1 x 10^-5 M
[13] = molecular target: Nociceptin receptor (Rattus norvegicus) (UniProt P35370); test: Activity at Wistar rat NOP receptor assessed as inhibition of low-frequency electrically-stimulated vas deferens contraction at 1 x 10^-6 M in presence of naloxone relative to control
Nociceptin receptor (Rattus norvegicus), sequence (P35370 whole entry): as the sequence (P35370 whole entry, looked up) above

[14] = molecular target: Nociceptin receptor (Rattus norvegicus) (UniProt P35370); test: Activity at Wistar rat NOP receptor assessed as inhibition of low-frequency electrically-stimulated vas deferens contraction at 1 x 10^-11 to 1 x 10^-5 M in presence of naloxone
Nociceptin receptor [15] = molecular target: T4, Nociceptin receptor (Rattus norvegicus, UniProt P35370); test: Activity at Wistar rat NOP receptor assessed as inhibition of low-frequency electrically-stimulated vas deferens contraction in presence of naloxone
T4 sequence (P35370 whole entry): as the sequence (P35370 whole entry, looked up) above

[16] = molecular target: Nociceptin receptor (Rattus norvegicus) (UniProt P35370); test: Activity at Wistar rat NOP receptor assessed as inhibition of low-frequency electrically-stimulated vas deferens contraction at 1 x 10^-6 M relative to control
Nociceptin receptor [17] = molecular target: T4, Nociceptin receptor; test: Activity at Wistar rat NOP receptor assessed as inhibition of low-frequency electrically-stimulated vas deferens contraction
[18] = molecular target: Nociceptin receptor (Rattus norvegicus) (UniProt P35370); test: Activity at Wistar rat NOP receptor assessed as inhibition of low-frequency electrically-stimulated vas deferens contraction at 1 x 10^-6 M in presence of naloxone benzoylhydrazone
[19] = molecular target: T2, Nociceptin/mu opioid receptor (Rattus norvegicus); test: Activity at Wistar rat NOP/mu opioid receptor assessed as inhibition of low-frequency electrically-stimulated vas deferens contraction at 1 x 10^-5 M in presence of naloxone benzoylhydrazone; assay type: protein assay
[20] = molecular target: T2, Nociceptin/mu opioid receptor (Rattus norvegicus); test: Activity at Wistar rat NOP/mu opioid receptor assessed as inhibition of low-frequency electrically-stimulated vas deferens contraction at 1 x 10^-5 M in presence of naloxone; assay type: protein assay

CSCC[C@H](NC(=O)[C@H](Cc1ccccc1)NC(=O)[C@H](CCCNC(=N)N)NC(C)=O)C(=O)NC[C@H](C(=O)N[C@@H](CCSC)C(=O)N[C@@H](CCCCN)C(N)=O)c1cn(C)c2ccccc12 (Ac-RFM[X1]MK-NH2)
EC50 (Mu-type opioid receptor [1]): 1620 nM | Emax [2]: -15% | inhibition [3]: inactive | Emax [4]: -50% | EC50 (Mu-type opioid receptor [5]): 1230 nM | inhibition [6]: inactive

Ac-RFMWMK-NH2
EC50 (Mu-type opioid receptor [1]): 1150 nM | Emax [2]: -14% | inhibition [3]: inactive | Emax [4]: -52% | EC50 (Mu-type opioid receptor [5]): 1020 nM | inhibition [6]: inactive

COc1ccc2[nH]cc([C@H](CNC(=O)[C@H](CCSC)NC(=O)[C@H](Cc3ccccc3)NC(=O)[C@H](CCCNC(=N)N)NC(C)=O)C(=O)N[C@@H](CCSC)C(=O)N[C@@H](CCCCN)C(N)=O)c2c1 (Ac-RFM[X2]MK-NH2)
Emax [7]: -14% | inhibition [8]: inactive | Emax [9]: -34% | pEC50 [10]: 5.78 | pEC50 [11]: 6.26 | inhibition [12]: Active

COc1ccc2[nH]cc([C@H](CNC(=O)[C@H](CCCNC(=N)N)NC(=O)[C@H](Cc3ccc(O)cc3)NC(=O)[C@H](Cc3ccc(O)cc3)NC(=O)[C@H](CCCNC(=N)N)NC(C)=O)C(=O)N[C@@H](CCCCN)C(N)=O)c2c1 (Ac-RYYR[X2]K-NH2)
Emax [13]: -12% | inhibition [14]: inactive | EC50 (Nociceptin receptor [15]): 1660 nM | Emax [16]: -52% | EC50 (Nociceptin receptor [17]): 1410 nM

C[C@H](NC(=O)CNC(=O)[C@@H](NC(=O)[C@H](Cc1ccccc1)NC(=O)CNC(=O)CNC(=O)[C@@H](N)Cc1ccccc1)[C@@H](C)O)C(=O)N[C@@H](CCCNC(=N)N)C(=O)N[C@@H](CCCCN)C(=O)N[C@@H](CO)C(=O)N[C@@H](C)C(=O)N[C@@H](CCCNC(=N)N)C(=O)N[C@@H](CCCCN)C(N)=O
Emax [16]: -73%

Ac-RYYRWK-NH2
Emax [13]: -31% | EC50 (Nociceptin receptor [15]): 6.17 nM | Emax [16]: -36% | EC50 (Nociceptin receptor [17]): 15.8 nM | inhibition [18]: inactive

CC(=O)N[C@@H](CCCNC(=N)N)C(=O)N[C@@H](Cc1ccc(O)cc1)C(=O)N[C@@H](Cc1ccc(O)cc1)C(=O)N[C@@H](CCCNC(=N)N)C(=O)NC[C@H](C(=O)N[C@@H](CCCCN)C(N)=O)c1cn(C)c2ccccc12 (Ac-RYYR[X1]K-NH2)
Emax [7]: -17% | Emax [9]: -36% | inhibition [19]: inactive | inhibition [20]: Active | pEC50 [10]: 6.5 | pEC50 [11]: 6.21
